Results as given in patent US20100216706A1, “Ghrelin Protects Substantia Nigra Dopamine Neurons” (priority 2007, published 2010).
No end group written: not given here. *: point of attachment. Octanoyl = CCCCCCCC(=O)*

Assays:
[1] = test system: midbrain (SN-VTA) mitochondria; assay: Mitochondrial respiration in midbrain of ghrelin-treated rats (Clark-type oxygen electrode); format: in vivo; conditions: 30 nmol IP, 3 hours
Protocol: Mitochondrial respiration: The ability of ghrelin to promote mitochondrial respiration was examined in mitochondria isolated from midbrain of ghrelin-treated rats (30 nmol) three hours after injection. Rats were used as the mitochondrial yield after isolation is much higher than the yield from mice. Mitochondrial respiration was also examined in the pooled midbrain of UCP2 ko and wt mice (3 pooled brains), 3 hours after ghrelin injection (IP 30 nmol).
(§1) Mitochondria were pooled from the SN-VTA (4 animals=1, total n=4) and isolated by differential centrifugation. Because of the size of the tissue dissected, it was impossible to solely isolate only the SNc, and as such the results are reported as SN-VTA. Briefly, the SN-VTA was rapidly dissected and homogenized in isolation buffer (215 mM Mannitol, 75 mM sucrose, 0.1% fatty acid free BSA, 20 mM Hepes, 1 mM EGTA, pH adjusted to 7.2 with KOH). The homogenate was spun at 1300×g for 3 minutes. The supernatant was removed, and the pellet was resuspended with isolation buffer and spun again at 1300×g for 3 minutes. The 2 sets of supernatant from each sample were topped off with isolation buffer and spun at 13000×g for 10 minutes. The supernatant was discarded, and this step was repeated. After this second spin at 13000×g, the supernatant was discarded, and the pellets were resuspended with isolation buffer without EGTA and spun at 10000×g for 10 minutes. The final mitochondrial pellet was resuspended with 50 μl of isolation buffer without EGTA. Protein concentrations were determined with a BCA protein assay kit (Pierce, Rockford, Ill., USA).
(§2) Mitochondrial respirations were assessed using a Clark-type oxygen electrode (Hansatech Instruments, Norfolk, England) at 37° C. with pyruvate and malate (5 mM and 2.5 mM) as oxidative substrates in respiration buffer (215 mM Mannitol, 75 mM sucrose, 0.1% fatty acid free BSA, 20 mM Hepes, 2 mM MgC1, 2.5 mM KH2PO4, pH adjusted to 7.2 with KOH). Following the addition of ADP and oligomycin, UCP-mediated proton conductance was measured as increased fatty acid-induced respiration (Echtay et al., 2002), which was then compared to state 4 respiration induced by oligomycin, an inhibitor of H^+ transporting ATP synthase.
To determine whether ghrelin influences mitochondrial metabolism in the SNpc, mitochondrial respiration was measured in isolated […] from the midbrain of ghrelin-treated wild-type rats.
Ghrelin was administered intraperitoneally (30 nmol) and food was removed for the three hours injection period prior to sacrifice as ingested calorie load and the postprandial increase in glucose and insulin are known to reduce ghrelin effectiveness (Callahan et al., 2004, J Clin Endocrinol Metab 89: 1319-24; Cummings et al., 2006, Physiol Behav 89: 71-84). […] Subsequent blocking of the ATP synthase with oligomycin produced greater basal uncoupling after ghrelin (saline 31.4±1.4 vs ghrelin 50.4±1.5, p<0.0001; FIG. 4A). Palmitate (free fatty-acid) induced respiration was also elevated in ghrelin-treated rats (saline 125.0±3.8 vs ghrelin 185.3±9.3, p<0.001; FIG. 4A). Finally, ghrelin increased FCCP-driven respiration, an index of total uncoupling capacity of the inner mitochondrial membrane (FIG. 4A).

[2] = test system: SNpc DA neurons mitochondria; assay: Mitochondria number in SNpc DA perikarya (electron microscopy); format: in vivo, mice
Text: Mitochondria number: Animals were perfused and their brains were processed for TH immunolabeling for electron microscopic examination. Ultrathin sections were cut on a Leica ultra microtome, collected on Formvar-coated single-slot grids and analyzed with a Tecnai 12 Biotwin (FEI Company) electron microscope. Mitochondria were counted blindly from randomly selected sections, and Scion Image was used to normalize cytoplasmic area so that mitochondrial number per cell is expressed in square micrometers.
Given that ghrelin induces mitochondrial respiration as described above, an experiment was performed to test whether ghrelin could also alter mitochondrial number in the SNpc DA perikarya. […]
Therefore, an experiment was performed to test whether ghrelin increases mitochondrial number in the SNpc dopamine neurons. […] In line with this, UCP2 ko mice show reduced mitochondrial number in the SNpc dopamine neurons, which predisposes them to environmental toxins (Andrews et al., 2005, J Neurosci 25:184-191). Furthermore, mitochondrial dysfunction lies at the very heart of Parkinson's disease (Lin et al., 2006, Nature 443:787-795).

TH neurons in the SNpc = assay: MPTP-induced TH cell loss in the SNpc (stereology, optical fractionator); format: in vivo, mice
Text: Control animals were given saline. Animals were sacrificed and perfused 7 days later and processed for immunohistochemistry or HPLC for dopamine (DA) and metabolites. n=8-10 for ghrelin wt and ko mice; n=6 for GHSR wt/wt, homo/wt and homo/TG.
TH cell quantification: Free floating sections were stained with TH (1:5000, Chemicon International) and visualized with DAB using standard procedures.
Unbiased stereology methods were used to quantify TH immunoreactive cells in the SNpc. Cells were visualized by a Zeiss microscope and relayed via a MicroFibre digital camera (www(dot)optronics(dot)com) to a computer where they were counted using the optical fractionator with the sophisticated Stereolnvestigator software (MicroBrightField, Williston, Vt., USA). Every fourth section was collected through the SNpc, and TH cells were counted in grids randomly positioned by the software in the outlined counting area through all optical planes, thus creating a 3 dimensional counting area.
The observation that ghrelin promotes SNpc DA neuronal function, mitochondrial respiration and number raises the possibility that ghrelin may protect nigrostriatal dopaminergic system during increased cellular stress. […] In brief, mice were treated with daily IP injections of exogenous ghrelin (10 nmols) or saline for 14 days. Mice were injected immediately before the dark phase, and food was removed overnight since calorie intake and postprandial increases in glucose and insulin can suppress the action of ghrelin (Cummings et al., 2006, Physiol Behav 89: 71-84). Both ghrelin and saline treated mice were given 3 grams of standard chow the following morning at 9 am. […] After the subsequent 7 days of treatment (saline or ghrelin), TH immunoreactive neurons were counted blind by two independent researchers using the non-biased optical fractionator on the stereology program, Stereoinvestigator.

[3] = test system: UCP2-dependent mitochondrial respiration; assay: Uncoupled mitochondrial respiration in pooled midbrain of UCP2 wt or ko mice; format: in vivo; conditions: ghrelin IP 30 nmol, 3 hours
Protocol: Rats were used as the mitochondrial yield after isolation is much higher than the yield from mice. Mitochondrial respiration was also examined in the pooled midbrain of UCP2 ko and wt mice (3 pooled brains), 3 hours after ghrelin injection (IP 30 nmol).
as §1, §2
To test whether UCP2 is important in ghrelin-induced midbrain respiration, mitochondria were isolated from the midbrain of pooled UCP2 wt or ko mice treated with ghrelin or saline, and uncoupled respiration was measured.

ghrelin (GSS(Octanoyl)FLSPEHQRVQQRKESKKPPAKLQPR; listed as Homo sapiens) [28 amino acid acyl-peptide esterified with octanoic acid on Ser3; endogenous ligand of GHSR]
FCCP-driven respiration [1]: increased
Basal uncoupling after oligomycin ([1]; saline 31.4±1.4): 50.4±1.5
Mitochondrial respiration after pyruvate and malate ([1]; saline 33.5±2.1): 49.5±1.9
Palmitate induced respiration ([1]; saline 125.0±3.8): 185.3±9.3
Mitochondrial respiration after ADP ([1]; saline 128.3±7.5): 185.2±17.7
Mitochondrial number in DA perikarya of the SNpc ([2]; mice, three hours after ghrelin injection, saline 0.46±0.03): 0.62±0.03 μm^2
Mitochondrial number in SNpc dopamine neurons, UCP2 ko mice ([2]; two hours after ghrelin injection, saline 0.45±0.03): 0.39±0.03 μm^2
Mitochondrial number in SNpc dopamine neurons, UCP2 wt mice ([2]; two hours after ghrelin injection, saline 0.46±0.03): 0.62±0.03 μm^2
Total TH neurons in SNpc, ghr/MPTP (TH neurons in the SNpc; ghrelin 10 nmols IP daily 14 days, MPTP 30 mg/kg IP on day 7): 7836±285
Total TH neurons in SNpc, ghr/sal (TH neurons in the SNpc; ghrelin 10 nmols IP daily 14 days, saline on day 7, sal/sal 11283±342): 11616±318
Dopamine cell loss compared to control mice, ghrelin treatment (TH neurons in the SNpc; ghrelin 14 days, MPTP on day 7): 33%
SNpc volume, ghr/MPTP (TH neurons in the SNpc; ghrelin 14 days, MPTP on day 7): not significantly different
SNpc volume, ghr/sal vs sal/sal (TH neurons in the SNpc; ghrelin 14 days, saline on day 7): not significantly different
Basal uncoupled respiration after oligomycin, UCP2 ko mice ([3]; ko saline 34.2±2.6): 39.2±0.4
Mitochondrial respiration after palmitate, UCP2 ko mice ([3]; ko saline 96.0±7.5): 109.7±2.9
Basal uncoupled respiration after oligomycin, UCP2 wt mice ([3]; wt saline 32.7±1.6): 41.5±1.9
Mitochondrial respiration after palmitate, UCP2 wt mice ([3]; wt saline 106.3±5.3): 134.5±4.5
FCCP-driven respiration, UCP2 wt mice ([3]; wt saline 352±14.1): 472±12.7
